Experiments:
[1] = testing of topical pain relief; format: in vivo
Text: A new route of administration for mannitol for the specific indication of pain is disclosed. The topical composition allows for transdermal delivery of mannitol. […] The ingredients, including mannitol, are typically classified as natural health products.
(§1) Therefore, an improved topical composition includes from 0.25% up to 20.0% of menthol, by weight.

[2] = absorption of mannitol through skin; settings: when menthol is included in the composition
Text: as §1

TRPV1 receptor = TRPV1 receptor (Homo sapiens, UniProt Q8NER1); experiment: inventors' own studies on mechanism of topical pain relief; settings: distinct from osmotic effects
Text: The TRPV1 receptor is present on sensory nerves in the skin and is implicated in neurogenic inflammation, acute pain and chronic pain.

TRPV1 receptor, sequence (Q8NER1 whole entry): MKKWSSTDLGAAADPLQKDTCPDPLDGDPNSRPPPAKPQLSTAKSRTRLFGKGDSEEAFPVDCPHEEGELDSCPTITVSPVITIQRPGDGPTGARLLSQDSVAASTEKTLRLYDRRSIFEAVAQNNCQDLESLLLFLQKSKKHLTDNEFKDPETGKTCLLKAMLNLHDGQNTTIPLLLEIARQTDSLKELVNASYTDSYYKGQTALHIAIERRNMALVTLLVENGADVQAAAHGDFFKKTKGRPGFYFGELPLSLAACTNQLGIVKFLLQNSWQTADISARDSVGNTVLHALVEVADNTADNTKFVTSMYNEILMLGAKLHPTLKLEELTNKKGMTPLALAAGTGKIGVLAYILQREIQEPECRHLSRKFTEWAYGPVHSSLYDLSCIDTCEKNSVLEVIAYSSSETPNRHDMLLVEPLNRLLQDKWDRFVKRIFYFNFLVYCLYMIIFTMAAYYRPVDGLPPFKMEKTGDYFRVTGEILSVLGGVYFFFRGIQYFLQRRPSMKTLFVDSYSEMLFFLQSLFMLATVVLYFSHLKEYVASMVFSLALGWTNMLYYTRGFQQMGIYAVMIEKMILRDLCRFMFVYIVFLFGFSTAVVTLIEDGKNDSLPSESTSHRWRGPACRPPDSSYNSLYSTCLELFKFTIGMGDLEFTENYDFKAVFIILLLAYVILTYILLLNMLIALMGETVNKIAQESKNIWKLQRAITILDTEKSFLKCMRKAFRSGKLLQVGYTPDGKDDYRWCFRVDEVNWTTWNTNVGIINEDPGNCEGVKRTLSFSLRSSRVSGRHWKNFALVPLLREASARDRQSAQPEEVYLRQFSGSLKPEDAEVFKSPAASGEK

Structure (SMILES)	pain relief ([1]; when menthol is included in the composition)	absorption through skin [2]	effect on TRPV1 receptor (TRPV1 receptor)	effectiveness of menthol content in the topical composition ([1]; 1.25% menthol by weight)
OC[C@@H](O)[C@@H](O)[C@H](O)[C@H](O)CO [mannitol]	improved pain relief	much more effectively absorbed	down-regulation	–
CC1CCC(C(C)C)C(O)C1 (stereo not shown) [menthol]	–	–	–	effective

Source: US9744122B2, “Topical formulation for pain relief” (priority 2013, dated 2017)
